The source of these data is patent US6458758B1, “Compositions and methods utilizing nitroxides in combination with biocompatible macromolecules” (Synzyme Technologies, Inc., priority 1993, dated 2002).

A short description of data set [1]: Superoxide oxidase / dismutase activity of nitroxide-labelled hemoglobin on storage (ESR). The data set is classed as biochemical. The source says: For example, an o-raffinose polymerized hemoglobin solution that has been labelled with 4-amino-TEMPO is stored in its oxygenated state in a sealed glass container (FIG. 1A). In such a state, the rate of superoxide anion and met-hemoglobin formation in solution is sufficiently rapid that the conversion of the nitroxide to its hydroxylamine derivatives may be conveniently monitored (See Equation [4] and compare FIGS. 1A and 1B). Equation 4 represents that the conversion of nitroxide to its diamagnetic hydroxyl derivative is coupled to the conversion of the superoxide anion back to molecular oxygen. […] (FIG. 1B). The nitroxide is considered to have performed a “superoxide oxidase”-like activity when it is converted to its hydroxylamine derivative in the presence of hemoglobin.
Knowing that under the experimental conditions described in FIGS. 1A and 1B the nitroxide is fully converted to hydroxylamine (See Equation [4]), the nitroxide may be regenerated by simply providing more superoxide anion as shown in Equation 5. […] This observation is consistent with the reconversion of the hydroxylamine derivative to nitroxide coupled with the formation of hydrogen peroxide from superoxide anion.

Data set [2] deals with mice. The following applies: cited from earlier work.
Data set [3] relates to Chinese Hamster V79 cells. Put plainly: Radioprotection of Chinese Hamster V79 cells at 12 Gray. The data set is classed as cell-based. The following applies: 12 Gray x-ray; cells pretreated 10 minutes prior to irradiation.
Data set [4] is described as follows: EPR signal of ^15N-TEMPOL in isolated ischemic rat heart. As to conditions: 2 mM TPL. The procedure:
The solid lines are double-exponential fittings to the observed intensity data. The half-lives are 0.4 minutes, 2.9 minutes (▪), and 3.3 minutes, 30.1 minutes (●) respectively.
Using methods essentially as described in Kuppusamy et al. Proc. Natl. Act. Sci., USA Vol. 91, pgs.
In an EPR imaging study, the rat heart was perfused with a solution containing nitroxide with or without polynitroxide albumin, followed by cessation of perfusate flow in order to create ischemia. […] It can be seen the signal intensity undergoes a biphasic decay and that the presence of polynitroxide albumin greatly slows the decay. By thus stabilizing the TEMPOL signal, polynitroxide albumin allows high-quality EPR images to be obtained over a prolonged period of time. Referring to FIGS. 22-23, a three-dimensional EPR image of the ischemic heart can still be obtained after 156 minutes of global ischemia. […] This illustrates that the presence of PNA allows much better imaging than is possible with TEMPOL alone, in terms both of resolution and signal persistence.
In FIG. 24, the intensity of the EPR signal is shown as a function of the duration of ischemia. In the lower curve, 2 mM of TEMPOL is infused into an ischemic heart. The upper curve traces the original intensity of 2 mM TEMPOL together with a polynitroxide albumin (4 g/dl of albumin at 42 moles of TEMPOL per mole of albumin). […]

Data set [5] has as its system C57 mice. As to the kind of experiment: 30-day survival of C57 mice after 10 Gray irradiation. Format: in vivo. The following applies: TPL 200 mg/kg ip, PNA 0.5 ml/mouse iv where given, 10 mice per group.
Data set [6] can be described thus: Rat plasma TPL after intravenous injection (EPR spin density). The data set is classed as in vivo. As to conditions: 100 mM solution, 10% v/v top load. Here is the method:
FIG. 14 is a plot showing time dependence of rat plasma concentrations of TPL after intravenous injections. Plasma samples were obtained from rats described in FIG. 13. TPL concentrations were determined from EPR spin density measurements.

Data set [7] in a line: in vivo. The following applies: iv.
The subject of data set [8] is C3H mice. As to conditions: cited from earlier work.
In data set [9] the test system is conscious rats. As to the kind of experiment: Mean arterial pressure response in conscious rats.
Source text: The rats were allowed to recover from surgery and anesthesia for approximately 7 days prior to study.
The rats were allowed to recover from surgery and anesthesia for approximately seven days prior to study.
Data set [10] in a line: Plasma levels of TPL with or without PNA in C57 mice (EPR). As to conditions: TPL 275 mg/kg ip alone.
The nature of data set [11]: In vivo EPR of mouse skin: intradermal PNA and intravenous ^15N-TPL. The procedure: Thirty minutes later the spectrum in (C) was recorded.
The intensity of the low field ^15N-TPL peak is plotted against time. […].
FIGS. 42A and 42B show the pharmacokinetics of intravenous ^15N-TPL (1% v/w) measured at a patch of skin on the abdomen of the mouse.
A custom-built bridged loop-gap surface resonator, absorption microwave bridge was used for in vivo EPR spectroscopy at 1.25 GHz (L-band) in the mouse. […] The anesthetized mouse was placed in a ‘sandwich’ of two templates which allowed it to be placed on the loop-gap surface resonator, absorption microwave bridge in either the supine position, for spectroscopy of the back of the head, or in the prone position for spectroscopy of the abdomen. A tail vein cannula was used for intravenous injection of ^15N-TEMPOL; this injection site was remote from the resonator.
The spectrum was made 1 minute after ^15N-TPL was injected via the tail vein. […] FIG. 40B was recorded at approximately ⅕ of the instrument gain used in FIG. 40A in order to accommodate the ^15N-TPL signal.

Data set [12] in a line: In vivo ESR of mouse tail after iv nitroxide-labelled HBOC plus ^15ND17-TEMPOL. As to conditions: 0.5 ml iv via cannula. Here is the method:
FIG. 7A is the ESR spectrum of the nitroxide signal recorded from the mouse tail approximately 10 minutes after intravenous infusion of 0.5 ml of the sample shown in FIG. 6. FIG. 7B is the time dependent (scan time 30 minutes) decrease in the center peak (Mo) signal intensity of FIG. 7A recorded at 10 times of the instrument sensitivity. FIG. 7C is a continuation of FIG. 7B at the end of its scan.
FIG. 8A is a series of 5 ESR spectrum recorded at 0.5 minute intervals, the magnetic field strength was increased by 2 Gauss in between each scan to display the decrease in signal intensity as a function of time. […]
The separation of the resonance peaks permits the simultaneous monitoring of free radical or enzyme mimic activities involving the small molecular weight nitroxide (TEMPOL) and its macromolecular conjugate in both in vitro and in vivo (murine) reactions. […] First, the approximate plasma half-life of a small molecular weight nitroxide (^15ND17-TEMPOL see FIG. 4C) and a large molecular weight 4-(2-bromoacetamido)-TEMPOL-labelled HBOC (see FIG. 4B) are determined by preparing a mixture of the two and adjusting the ESR signal intensity to be approximately the same (see FIG. 6). […] The mouse tail was inserted into an ESR cavity and the spectrum was recorded within 10 minutes after injection (see FIG. 7A). […]

The test system of data set [13] is leukocyte rolling and adhesion to endothelial cells. Put plainly: Cigarette smoke induced leukocyte rolling, adhesion and aggregate formation, dorsal skinfold chamber. Format: in vivo, Syrian Golden hamsters. From the text:
The interactions of leukocytes with endothelial cells and platelets are an indicator of the microcirculatory response to several adverse physiological conditions, ranging from localized and systemic ischemia/reperfusion injury, rejection of organ grafts, and the response to the organism to various oxidizing novae. See also Lehr et al., PNAS, […]. The mediator role of reactive oxygen species has been documented in many in vitro and in vivo models and, as a consequence, antioxidants and radical scavengers have been applied to counteract leukocyte activation, aggregation, and adhesion to endothelium and the subsequent microcirculatory dysfunction.

Read-outs that look alike come from different tables or passages of the source.

As for “4-amino-TEMPO labelled o-raffinose polymerized hemoglobin: o-raffinose polymerized hemoglobin labelled with 4-amino-TEMPO”, in data set [1] (30 days of cold storage at 4° C.), the “nitroxide signal after storage of sample diluted with equal volume of unlabelled hemoglobin” value is given as “partially regenerated”. Further, the “ESR resonance peaks after storage (conversion of nitroxide to hydroxylamine)” value in [1] (oxygenated, sealed glass container, 30 days at 4° C.) is recorded as “complete disappearance of the resonance peaks”.

As for `CC1(C)CCCC(C)(C)N1[O]` [TEMPO, 2,2,6,6 tetramethylpiperidine-1-oxyl], the 50% lethal dose (LD50) (as a rule, the dose at which mortality reaches 50%) in data set [2] (mice, intraperitoneal) is recorded as 341 mg/kg. For the same compound, the “maximum tolerated intraperitoneal dose” value in [2] (mice) is reported as 275 mg/kg.

As for `CC1(C)CC(O)CC(C)(C)N1O` [TPH], in data set [3], the “surviving fraction of V79 cells” value came out at 2%.

In the case of `CC1(C)CC(O)CC(C)(C)N1[O]` [TPL, 4-hydroxy-2,2,6,6-tetramethylpiperidine-1-oxyl], the half-life (commonly the time needed for the level to fall by half in the phase considered) at 2 mM in data set [4] (read-out: half-life of EPR signal, first phase of double-exponential fit) was 0.4 min; in data set [4] (read-out: half-life of EPR signal, second phase of double-exponential fit), 2.9 min. For the same compound, the 30-day survival in data set [5] was 10%. Besides, the half-life in [6] was under 1 min; in data set [7] (C57, mouse) it was about 0.833 min; in [7] (mouse), about 2 min. The “time to maximum peak intensity in mouse tail” value (repeat iv injection of TEMPOL) is listed as “approximately 10 seconds”. Also, in data set [2] (C3H mice), the “maximal tolerated dose administered intraperitoneally” value is given as 275 mg/kg. In addition, in data set [8] (275 mg/kg ip, 5-10 minutes after injection), the “maximal TPL levels in whole blood” value is about 150 µg/mL. In addition, in [8] (TPL 275 mg/kg ip 5-10 minutes before whole body radiation), the “dose of radiation at which 50% of treated mice die within 30 days” value is given as 9.97 Gray. Moreover, the vasodilatory effect entry in [9] (10% v/v top load, PNA 5 g/dl, TPL 100 mM) is reported as “no significant vasodilatory effect”. For the same compound, in data set [9] (conscious rats), the “antihypertensive effect when injected alone with HBOC” value is recorded as “no antihypertensive effect”. For the same compound, the “maximum plasma level of TPL relative to ~100 mg/kg ip in the presence of PNA” value in data set [10] is reported as “approximately one-fifth”.

Turning to `CC1(C)CC(O)CC(C)(C)[15N]1[O]` [^15N-TPL], in [11] (abdomen skin, absence of intradermal PNA), the “local half-life in skin” value was found to be 0.5 min. The “time the increased ^15N-TPL signal was maintained” value in data set [11] (abdomen skin, after intradermal injection of 100 μl PNA) is on record as “at least 30 minutes”. In addition, in data set [11] (absence of intradermal PNA), the “decay of ^15N-TPL to ^15N-TPH” value is recorded as “complete”. In addition, the “time to maximum ^15N-TPL signal after tail vein injection” value in [11] (measured at site of intradermal PNA injection on the back) is reported as “less than 2 minutes”. Further, the “residual steady-state level as share of the initial ^15N-TPL concentration” value in data set [11] (site of intradermal PNA injection, assuming complete distribution in total body water) was 17%. Moreover, in data set [11] (skin on the back, in the presence of intradermal PNA), the “time the ^15N-TPL signal remained stable” value is “at least 30 minutes”. In addition, for the setting “mouse, 0.5 ml of 40 mM iv, no PNA”, the “plasma half-life (reduction to TPH)” value is 2 min.

In the case of `[2H]C([2H])([2H])C1(C([2H])([2H])[2H])[15N]([O])C(C([2H])([2H])[2H])(C([2H])([2H])[2H])C([2H])([2H])C([2H])(O)C1([2H])[2H]` [^15ND17-TEMPOL], in data set [12], the “time to disappearance of ESR signal after injection” value is at most 2.5 min.

For “Hemoglobin-based oxygen carrier (HBOC), DBBF-Hb: purified hemoglobin cross-linked with bis(3,5 dibromosalicyl)fumarate”, in data set [13] (15 MINUTES), the aggregate formation is 3.0 ± 1.7 /30 sec, the arteriolar sticking is 31.9 ± 26.4 /mm^2, the venular rolling turned out to be 7.9 ± 2.8% and the venular sticking is given as 66.0 ± 43.2 /mm^2. In data set [13] (60 MINUTES), the aggregate formation is on record as 4.5 ± 2.6 /30 sec, the arteriolar rolling was 3.8 ± 2.9 /mm, the arteriolar sticking is 42.0 ± 32.1 /mm^2 and the venular rolling came to 9.2 ± 3.8%. Moreover, the venular sticking in data set [13] (60 MINUTES) was 101.5 ± 76.9 /mm^2. For the same compound, in data set [13] (BASELINE), the aggregate formation is on record as 0.3 ± 0.5 /30 sec, the arteriolar rolling is listed as 0.3 /mm, the arteriolar sticking is recorded as 0.0 /mm^2 and the venular rolling came out at 5.8 ± 1.2%. For the same compound, the venular sticking in data set [13] (BASELINE) is given as 0.0 ± 0.0 /mm^2. Moreover, the leukocyte activation entry in data set [13] (cigarette smoke, compared with saline-treated controls) was “no effect”.
